Experimental data as given in paper PMC7956643, “Synthesis of Novel Pyrido[1,2-c]pyrimidine Derivatives with 6-Fluoro-3-(4-piperidynyl)-1,2-benzisoxazole Moiety as Potential SSRI and 5-HT1A Receptor Ligands” (International Journal of Molecular Sciences, 2021).

Assays:
[1] = biological target: T1, 5-HT7 receptors (Homo sapiens, UniProt P34969); experiment: 5-HT7 radioligand binding assay; details: [3H]-5-CT; HEK293 cells, human receptor
T1 construct: expressed in transfected cells
Procedure: (§1) In vitro radioligand binding assays for 5-HT2A, 5-HT6, 5-HT7 and D2 receptors were carried out using methods published by Zajdel et al.. For the assays, HEK293 cell cultures stably expressing the investigated human receptors were used. Cell pellets were thawed and homogenized in 20 vol of assay buffer using an Ultra Turrax tissue homogenizer, then centrifuged twice at 35000 g for 20 min at 4 °C, with incubation for 15 min at 37 °C in between. The composition of the assay buffers was as follows: for 5-HT2A receptors—50 mM Tris-HCl, 0.1 mM EDTA, 4 mM MgCl2 and 0.1% ascorbate; for 5-HT6 receptors—50 mM Tris-HCl, 0.5 mM EDTA, 4 mM MgCl2; for 5-HT7 receptors—50 mM Tris-HCl, 4 mM MgCl2, 10 µM pargyline and 0.1% ascorbate; for D2 receptors—50 mM Tris-HCl, 1 mM EDTA, 4 mM MgCl2, 120 mM NaCl, 5 mM KCl, 1.5 mM CaCl2 and 0.1% ascorbate. All assays were incubated in total volume of 200 mL in 96-well microtitre plates for 1 h at 37 °C, except for 5-HT2A receptors which were incubated at room temperature for 1.5 h. The process of equilibration was terminated by rapid filtration through Unifilter plates with a 96-well cell harvester, and radioactivity retained on the filters was quantified on a Microbeta plate reader (PerkinElmer, USA). For displacement studies, the assay samples contained as radioligands (PerkinElmer): 2 nM [^3H]-ketanserin (spec. act. 53.4 Ci/mmol) for 5-HT2A receptors; 2 nM [^3H]-LSD (spec. act. 83.6 Ci/mmol) for 5-HT6 receptors; 0.6 nM [^3H]-5-CT (spec. act. 39.2 Ci/mmol) for 5-HT7 receptors and [^3H]-raclopride (spec. act. 76.0 Ci/mmol) for D2 receptors. […] Each compound was tested in triplicate at 7–8 concentrations (10^-11-10^-4 M). The inhibition constants (Ki) were calculated from the Cheng–Prusoff equation [46]. Results were expressed as means of at least two separate experiments.

[2] = biological target: T2, 5-HT2A receptors (Homo sapiens, UniProt P28223); experiment: 5-HT2A radioligand binding assay; details: [3H]-ketanserin; HEK293 cells, human receptor
T2 construct: expressed in transfected cells
T2 sequence (P28223 whole entry): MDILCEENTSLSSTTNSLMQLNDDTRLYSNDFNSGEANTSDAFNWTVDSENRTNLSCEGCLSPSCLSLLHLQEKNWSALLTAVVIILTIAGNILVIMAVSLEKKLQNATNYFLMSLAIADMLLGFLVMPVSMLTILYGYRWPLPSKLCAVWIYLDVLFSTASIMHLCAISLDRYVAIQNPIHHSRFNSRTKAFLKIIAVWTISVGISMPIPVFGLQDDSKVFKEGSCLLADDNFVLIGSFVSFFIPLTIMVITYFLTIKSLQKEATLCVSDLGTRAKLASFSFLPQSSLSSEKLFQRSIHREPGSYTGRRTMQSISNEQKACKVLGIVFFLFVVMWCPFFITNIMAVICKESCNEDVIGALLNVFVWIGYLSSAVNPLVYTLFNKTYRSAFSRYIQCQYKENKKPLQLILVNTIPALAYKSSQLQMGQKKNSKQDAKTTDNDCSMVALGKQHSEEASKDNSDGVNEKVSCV
Procedure: as §1, with “All assays were incubated in total volume of 200 mL in 96-well microtitre plates for 1 h at 37 °C, except for 5-HT2A receptors which were incubated at room temperature for 1.5 h.” left out

[3] = Metabolic stability in pooled human liver microsomes; format: in vitro ADME; details: pH 7.4, pooled HLMs 1 mg/mL, NADPH, 1 µM compound, 37 °C
Procedure: Stock solutions of studied compounds were prepared at concentration of 100 µM in 1:1 acetonitrile/water mixture. Incubation mixes consisted 1 μM of a studied compound, 100 µM of NADPH in phosphate buffer and 1 mg/mL of pooled HLMs (Sigma-Aldrich, St. Louis, MO, USA) in potassium phosphate buffer (0.1 M, pH 7.4). Incubation was carried out in 96-well plates at 37 °C. Incubation mixtures (excluding compound solution) were subjected to 5 min preincubations, and started by addition of 10 µL of compound stock solution. After 0, 5, 10, 15, and 30 min, 25 µL samples of incubation reaction were added to the equal volume of ice-cold acetonitrile containing 1 µM of IS (buspirone hydrochloride). Control incubations were performed without NADPH to assess possible chemical instability. All samples were immediately centrifuged (10 min, 10,000 rpm) and the resulting supernatant was directly subjected to LC-MS analysis.
LC-MS analysis was performed on an Agilent 1260 system coupled to SingleQuad 6120 mass spectrometer (Agilent Technologies, Santa Clara, CA, USA). A Poroshell C18 EC120 column (3.0 × 100 mm^2, 2.7 μm, Agilent Technologies, Santa Clara, CA, USA) was used in reversed-phase mode with gradient elution starting with 90% of phase A (0.1% formic acid in deionised water) and 10% of phase B (0.1% formic acid in acetonitrile). […]

T1 sequence (P34969 whole entry): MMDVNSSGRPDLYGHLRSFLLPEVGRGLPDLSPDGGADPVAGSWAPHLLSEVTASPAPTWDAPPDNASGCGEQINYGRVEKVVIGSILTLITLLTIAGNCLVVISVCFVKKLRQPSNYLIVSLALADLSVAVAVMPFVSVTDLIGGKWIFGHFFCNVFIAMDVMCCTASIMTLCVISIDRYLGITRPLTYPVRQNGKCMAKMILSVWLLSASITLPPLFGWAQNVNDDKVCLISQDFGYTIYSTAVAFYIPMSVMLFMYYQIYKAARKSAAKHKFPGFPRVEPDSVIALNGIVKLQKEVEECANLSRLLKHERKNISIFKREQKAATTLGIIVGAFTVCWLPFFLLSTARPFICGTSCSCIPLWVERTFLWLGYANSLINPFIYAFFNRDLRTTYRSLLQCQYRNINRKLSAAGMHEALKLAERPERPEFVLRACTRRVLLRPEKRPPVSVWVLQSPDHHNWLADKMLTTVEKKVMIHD

Ki [1] [µM]	Ki [2] [µM]	melting point [°C]	half-life at 1 µM [3] [min]	Structure (SMILES)
0.062 ± 0.005	0.017 ± 0.003	132 to 133	3.61	O=c1c(-c2ccccc2)c2ccccn2c(=O)n1CCCCN1CCC(c2noc3cc(F)ccc23)CC1 [Compound 6a, 4-Phenyl-2-{4-[4-(6-fluoro-1,2-benzoxazol-3-yl)-1-piperidyl]butyl}-pyrido[1,2-c]pyrimidine-1,3-dione]
0.109 ± 0.014	0.02 ± 0.004	69 to 74	3.2	O=c1c(-c2ccccc2Cl)c2ccccn2c(=O)n1CCCCN1CCC(c2noc3cc(F)ccc23)CC1 [Compound 6d, 4-(2-Chlorophenyl)-2-{4-[4-(6-fluoro-1,2-benzoxazol)-1-piperidyl]butyl}-pyrido[1,2-c]pyrimidine-1,3-dione]
